Laboratory results published in patent publication US9102648B1, “Bioavailable diacylhydrazine ligands for modulating the expression of exogenous genes via an ecdysone receptor complex” (Intrexon Corporation, priority 2003, dated 2015).

Tests used:
[1] = Partition coefficient Log (D), 1-octanol / pH 7.4 buffer; type: physicochemical; conditions: water-saturated 1-octanol / pH 7.4 buffer, room temperature
Description: The partition coefficient, Log (D), between water-saturated 1-octanol and pH 7.4 buffer was determined for the test compounds. The buffer was prepared as described in section 2. A 12 μl aliquot of a 10 mM stock solution in DMSO was introduced to a vial containing 0.60 mL of octanol and 0.60 mL of buffer at room temperature. Testosterone was also added to a final concentration of 100 μM as an internal control. The solution was vortexed for 60 minutes and centrifuged at 10,000 rpm for 10 minutes. The organic and aqueous layers were removed. Serial dilutions of the organic layer were made with 50% methanol except for the initial dilution, which was made in 100% methanol. Serial dilutions of the aqueous layer were made in the pH 7.4 buffer. The diluted samples were then assayed by LC/MS for the compound as well as for testosterone. The Log of the ratio of peak area responses was calculated to obtain the Log (D). Typical Log D values for testosterone are from 3.0-3.3.

[2] = Aqueous equilibrium solubility in pH 7.4 buffer; conditions: pH 7.4 aqueous buffer, room temperature, equilibrium
[3] = molecular target: T1, Bombyx mori EcR (VP16 fusion, CVBE switch construct) (Bombyx mori, UniProt P49881); assay: Z3 Assay (HEK-293 cells with CVBE and 6XEcRE LacZ, β-galactosidase reporter)
T1 sequence (P49881 86-606): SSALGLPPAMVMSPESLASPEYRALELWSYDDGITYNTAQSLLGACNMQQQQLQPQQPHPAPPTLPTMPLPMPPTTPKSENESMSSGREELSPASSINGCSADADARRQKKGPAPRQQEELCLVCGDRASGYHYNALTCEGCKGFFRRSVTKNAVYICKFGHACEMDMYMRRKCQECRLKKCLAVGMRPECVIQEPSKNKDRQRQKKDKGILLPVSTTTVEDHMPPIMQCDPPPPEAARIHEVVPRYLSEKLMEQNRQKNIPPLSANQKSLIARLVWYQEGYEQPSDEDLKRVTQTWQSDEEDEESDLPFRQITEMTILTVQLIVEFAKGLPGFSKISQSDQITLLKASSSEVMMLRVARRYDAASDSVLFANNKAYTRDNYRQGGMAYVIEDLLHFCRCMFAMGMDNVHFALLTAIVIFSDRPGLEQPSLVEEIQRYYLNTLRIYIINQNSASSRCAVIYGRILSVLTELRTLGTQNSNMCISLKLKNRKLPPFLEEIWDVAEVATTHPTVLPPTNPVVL
T1 sequence (P19793 1-462 partner): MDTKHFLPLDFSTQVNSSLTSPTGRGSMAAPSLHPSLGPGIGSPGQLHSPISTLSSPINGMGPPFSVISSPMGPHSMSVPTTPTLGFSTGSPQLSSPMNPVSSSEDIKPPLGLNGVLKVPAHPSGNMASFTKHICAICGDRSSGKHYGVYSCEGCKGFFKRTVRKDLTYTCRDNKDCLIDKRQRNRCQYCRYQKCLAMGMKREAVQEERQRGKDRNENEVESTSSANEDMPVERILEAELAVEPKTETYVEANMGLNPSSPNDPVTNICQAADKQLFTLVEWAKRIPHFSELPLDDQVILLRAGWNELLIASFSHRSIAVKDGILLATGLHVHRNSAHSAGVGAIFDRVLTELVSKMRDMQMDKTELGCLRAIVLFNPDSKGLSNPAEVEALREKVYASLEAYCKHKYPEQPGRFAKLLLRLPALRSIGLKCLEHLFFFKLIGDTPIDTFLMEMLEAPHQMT

Caco-2 monolayers = assay: Bi-directional permeability, CACO-2; type: in vitro ADME
Description: Caco-2 monolayers were grown to confluence on collagen-coated, microporous, polycarbonate membranes in 12-well Costar Transwell plates. Details of the plates and their certification are shown below. The permeability assay buffer was Hank's Balanced Salt Solution containing 10 mM HEPES and 15 mM glucose at a pH of 7.0±0.2. The dosing solution concentration was 10 μM in assay buffer. At each time point, 1 and 2 hours, a 200-μL aliquot was taken from the receiver chamber and replaced with fresh assay buffer. Cells were dosed on the apical side (A-to-B) or basolateral side (B-to-A) and incubated at 37° C. with 5% CO2 and 90% relative humidity. Each determination was performed in duplicate. The important experimental parameters are outlined below. Permeability through a cell-free (blank) membrane was studied to determine non-specific binding and free diffusion of the compound through the device. Lucifer yellow flux was also measured for each monolayer after being subjected to the test compounds to ensure no damage was inflicted to the cell monolayers during the flux period.
All samples were assayed by LC/MS using electrospray ionization. Typical LC/MS conditions are as follows:
dCr/dt is the cumulative concentration in the receiver compartment versus time in M s^−1.
Vr is the volume of the receiver compartment in cm^3.
Vd is the volume of the donor compartment in cm^3.
A is the area of the cell monolayer (1.13 cm^2 for 12-well Transwell).
C0 is the concentration of the dosing solution in M.
Cr^final is the cumulative receiver concentration in M at the end of the incubation period.
Cd^final is the concentration of the donor in M at the end of the incubation period.

What does the source list for CCc1c(OC)cccc1C(=O)NN(C(=O)c1ccccc1S(=O)(=O)O)C(C)(C)C [RG-115555]?
Log(D) Octanol/pH 7.4 [1]: 0.0; Solubility pH 7.4 [2]: ≧1.0 mg/mL; Fold Induction, Z3 Assay, 3.3 uM ([3]; 3.3 uM ligand, ligand treated / DMSO treated cells, average of two wells): 1; Z3 assay Rel Max FI ([3]; maximum fold induction at any concentration relative to that of GS-E ligand, HEK-293 Z3 cells): 0.006; EC50 ([3]; read-out: Z3 assay EC50, HEK-293 Z3 cells, β-galactosidase reporter, average of two wells): > 50 µM; Papp Blank (Caco-2 monolayers; Caco-2): 35.8 10^−6 cm/s; Papp, A-to-B Avg (Caco-2 monolayers; Caco-2): 0.18 10^−6 cm/s; Papp, A-to-B Rep. 1 (Caco-2 monolayers; Caco-2): 0.18 10^−6 cm/s; Papp, A-to-B Rep. 2 (Caco-2 monolayers; Caco-2): 0.18 10^−6 cm/s; Papp, B-to-A Avg (Caco-2 monolayers; Caco-2): 1.61 10^−6 cm/s; Papp, B-to-A Rep. 1 (Caco-2 monolayers; Caco-2): 1.55 10^−6 cm/s; Papp, B-to-A Rep. 2 (Caco-2 monolayers; Caco-2): 1.67 10^−6 cm/s; Papp B-A / Papp A-B Ratio (Caco-2 monolayers; Caco-2 efflux ratio): 8.9

Which results are given for CC(O)c1ccc(C(=O)NN(C(=O)c2cc(CO)cc(CO)c2)C(C)(C)C)cc1 (stereo not drawn) [RG-100021]?
Log(D) Octanol/pH 7.4 [1]: 0.8; Solubility pH 7.4 [2]: ≧1.0 mg/mL; Fold Induction, Z3 Assay, 33 uM ([3]; 33 uM ligand, ligand treated / DMSO treated cells, average of two wells): 1; Papp Blank (Caco-2 monolayers; Caco-2): 43.0 10^−6 cm/s; Papp, A-to-B Avg (Caco-2 monolayers; Caco-2): 0.22 10^−6 cm/s; Papp, A-to-B Rep. 1 (Caco-2 monolayers; Caco-2): 0.21 10^−6 cm/s; Papp, A-to-B Rep. 2 (Caco-2 monolayers; Caco-2): 0.22 10^−6 cm/s; Papp, B-to-A Avg (Caco-2 monolayers; Caco-2): 0.93 10^−6 cm/s; Papp, B-to-A Rep. 1 (Caco-2 monolayers; Caco-2): 0.91 10^−6 cm/s; Papp, B-to-A Rep. 2 (Caco-2 monolayers; Caco-2): 0.95 10^−6 cm/s; Significant Efflux (Caco-2 monolayers; Caco-2): No
